In the NIST ThermoML archive (doi:10.1016/j.jct.2006.06.008):

Experiment: xn = mol fraction of the nth substance listed
Details: 101 kPa, Liquid

CCCCO [butan-1-ol] + C1CCCC1
x2 = 0
Details | mass density [kg/m3] | speed of sound [m/s] | viscosity [mPa·s]
293.15 K | 809.5 | 1257 | 2.941
298.15 K | 805.75 | 1240 | 2.571
303.15 K | 801.8 | 1224 | 2.255

CCCCO [butan-1-ol] + C1CCCCC1
x2 = 0
Details | mass density [kg/m3] | speed of sound [m/s] | viscosity [mPa·s]
293.15 K | 809.5 | 1257 | 2.941
298.15 K | 805.75 | 1240 | 2.571
303.15 K | 801.8 | 1224 | 2.255

C1CCCCC1 [cyclohexane] + CCCCO
Details | mass density, 293.15 K [kg/m3] | mass density, 298.15 K [kg/m3] | mass density, 303.15 K [kg/m3] | speed of sound, 293.15 K [m/s] | speed of sound, 298.15 K [m/s] | speed of sound, 303.15 K [m/s] | viscosity, 293.15 K [mPa·s] | viscosity, 298.15 K [mPa·s] | viscosity, 303.15 K [mPa·s]
x1 = 0.0491 | 807.27 | 803.41 | 799.52 | 1254 | 1237 | 1220 | 2.777 | 2.437 | 2.147
x1 = 0.0988 | 804.96 | 801.04 | 797.08 | 1252 | 1234 | 1217 | 2.593 | 2.278 | 2.009
x1 = 0.2003 | 800.76 | 796.72 | 792.63 | 1249 | 1230 | 1211 | 2.254 | 1.984 | 1.756
x1 = 0.3081 | 796.54 | 792.37 | 788.15 | 1246 | 1227 | 1207 | 1.937 | 1.712 | 1.514
x1 = 0.4082 | 792.86 | 788.57 | 784.23 | 1245 | 1224 | 1204 | 1.684 | 1.492 | 1.33
x1 = 0.5125 | 789.41 | 785.01 | 780.55 | 1245 | 1224 | 1202 | 1.449 | 1.293 | 1.16
x1 = 0.6157 | 786.28 | 781.77 | 777.21 | 1247 | 1225 | 1202 | 1.257 | 1.13 | 1.023
x1 = 0.7086 | 783.78 | 779.19 | 774.55 | 1250 | 1227 | 1204 | 1.121 | 1.014 | 0.928
x1 = 0.8022 | 781.56 | 776.91 | 772.21 | 1255 | 1231 | 1208 | 1.047 | 0.955 | 0.874
x1 = 0.9029 | 779.62 | 774.9 | 770.14 | 1263 | 1239 | 1215 | 0.995 | 0.904 | 0.829
x1 = 0.9519 | 778.88 | 774.15 | 769.37 | 1269 | 1244 | 1220 | 0.972 | 0.889 | 0.817
x1 = 1 | 778.62 | 773.92 | 769.19 | 1279 | 1254 | 1230 | 0.968 | 0.887 | 0.816

C1CCCCC1 [cyclohexane] + CCCO
Details | mass density, 293.15 K [kg/m3] | mass density, 298.15 K [kg/m3] | mass density, 303.15 K [kg/m3] | speed of sound, 293.15 K [m/s] | speed of sound, 298.15 K [m/s] | speed of sound, 303.15 K [m/s] | viscosity, 293.15 K [mPa·s] | viscosity, 298.15 K [mPa·s] | viscosity, 303.15 K [mPa·s]
x1 = 0.0487 | 801.17 | 797.11 | 793.02 | 1222 | 1205 | 1187 | 2.079 | 1.842 | 1.645
x1 = 0.0993 | 798.82 | 794.71 | 790.56 | 1222 | 1204 | 1186 | 1.958 | 1.74 | 1.552
x1 = 0.1967 | 794.76 | 790.54 | 786.28 | 1223 | 1204 | 1185 | 1.735 | 1.544 | 1.379
x1 = 0.2993 | 791.11 | 786.78 | 782.41 | 1225 | 1205 | 1185 | 1.544 | 1.38 | 1.234
x1 = 0.4017 | 787.98 | 783.54 | 779.05 | 1228 | 1207 | 1186 | 1.391 | 1.249 | 1.124
x1 = 0.5071 | 785.25 | 780.71 | 776.12 | 1233 | 1211 | 1189 | 1.253 | 1.126 | 1.015
x1 = 0.6048 | 783.08 | 778.47 | 773.8 | 1238 | 1215 | 1193 | 1.135 | 1.026 | 0.937
x1 = 0.7036 | 781.23 | 776.55 | 771.82 | 1244 | 1221 | 1198 | 1.036 | 0.941 | 0.858
x1 = 0.8062 | 779.66 | 774.94 | 770.17 | 1252 | 1228 | 1204 | 0.98 | 0.895 | 0.822
x1 = 0.9053 | 778.68 | 773.93 | 769.14 | 1262 | 1237 | 1213 | 0.972 | 0.887 | 0.816
x1 = 0.9522 | 778.41 | 773.66 | 768.87 | 1268 | 1243 | 1219 | 0.969 | 0.892 | 0.81
x1 = 1 | 778.62 | 773.92 | 769.19 | 1279 | 1254 | 1230 | 0.968 | 0.887 | 0.816

C1CCCCC1 [cyclohexane] + CCO
Details | mass density, 293.15 K [kg/m3] | mass density, 298.15 K [kg/m3] | mass density, 303.15 K [kg/m3] | speed of sound, 293.15 K [m/s] | speed of sound, 298.15 K [m/s] | speed of sound, 303.15 K [m/s] | viscosity, 293.15 K [mPa·s] | viscosity, 298.15 K [mPa·s] | viscosity, 303.15 K [mPa·s]
x1 = 0.0473 | 787 | 782.65 | 778.29 | 1162 | 1144 | 1127 | 1.148 | 1.046 | 0.956
x1 = 0.096 | 784.97 | 780.6 | 776.2 | 1165 | 1147 | 1129 | 1.102 | 1.009 | 0.922
x1 = 0.2043 | 781.33 | 776.87 | 772.37 | 1174 | 1155 | 1135 | 1.051 | 0.954 | 0.875
x1 = 0.3028 | 779.4 | 774.86 | 770.28 | 1184 | 1164 | 1144 | 1.005 | 0.918 | 0.838
x1 = 0.3979 | 778.2 | 773.6 | 768.95 | 1195 | 1174 | 1153 | 0.978 | 0.893 | 0.818
x1 = 0.5027 | 777.4 | 772.73 | 768 | 1208 | 1186 | 1164 | 0.954 | 0.87 | 0.796
x1 = 0.5939 | 776.98 | 772.26 | 767.49 | 1219 | 1196 | 1174 | 0.934 | 0.853 | 0.781
x1 = 0.7051 | 776.79 | 772.03 | 767.22 | 1232 | 1209 | 1186 | 0.915 | 0.836 | 0.769
x1 = 0.8055 | 776.89 | 772.11 | 767.28 | 1245 | 1221 | 1197 | 0.908 | 0.833 | 0.769
x1 = 0.9041 | 777.3 | 772.5 | 767.8 | 1258 | 1235 | 1211 | 0.923 | 0.846 | 0.778
x1 = 0.9534 | 777.74 | 772.98 | 768.18 | 1267 | 1242 | 1218 | 0.941 | 0.862 | 0.793
x1 = 1 | 778.62 | 773.92 | 769.19 | 1279 | 1254 | 1230 | 0.968 | 0.887 | 0.816

C1CCCC1 [cyclopentane] + CCCCO
Details | mass density, 293.15 K [kg/m3] | mass density, 298.15 K [kg/m3] | mass density, 303.15 K [kg/m3] | speed of sound, 293.15 K [m/s] | speed of sound, 298.15 K [m/s] | speed of sound, 303.15 K [m/s] | viscosity, 293.15 K [mPa·s] | viscosity, 298.15 K [mPa·s] | viscosity, 303.15 K [mPa·s]
x1 = 0.0446 | – | 802.7 | 798.9 | – | 1236 | 1218 | – | 2.388 | 2.108
x1 = 0.046 | 806.62 | – | – | 1252 | – | – | 2.714 | – | –
x1 = 0.0914 | 803.7 | – | – | 1248 | – | – | 2.541 | – | –
x1 = 0.0995 | – | 798.99 | 795.01 | – | 1229 | 1211 | – | 2.168 | 1.92
x1 = 0.1924 | 796.71 | 792.62 | 788.49 | 1239 | 1220 | 1201 | 2.095 | 1.855 | 1.651
x1 = 0.294 | 789.84 | – | – | 1230 | – | – | 1.683 | – | –
x1 = 0.312 | – | 784.43 | 780.13 | – | 1209 | 1189 | – | 1.499 | 1.349
x1 = 0.3875 | – | 779.26 | 774.85 | – | 1203 | 1182 | – | 1.233 | 1.108
x1 = 0.398 | 782.75 | – | – | 1223 | – | – | 1.358 | – | –
x1 = 0.5104 | – | 770.8 | 766.2 | – | 1194 | 1172 | – | 0.945 | 0.865
x1 = 0.5211 | 774.4 | – | – | 1215 | – | – | 1.014 | – | –
x1 = 0.6157 | – | 763.63 | 758.89 | – | 1189 | 1166 | – | 0.748 | 0.689
x1 = 0.6208 | 767.72 | – | – | 1211 | – | – | 0.807 | – | –
x1 = 0.7182 | 761.29 | – | – | 1209 | – | – | 0.654 | – | –
x1 = 0.7372 | – | 755.6 | 750.73 | – | 1186 | 1162 | – | 0.588 | 0.547
x1 = 0.8124 | 755.51 | – | – | 1210 | – | – | 0.555 | – | –
x1 = 0.8361 | – | 749.32 | 744.36 | – | 1187 | 1163 | – | 0.498 | 0.472
x1 = 0.9032 | – | 745.24 | 740.23 | – | 1191 | 1166 | – | 0.457 | 0.431
x1 = 0.9141 | 749.28 | – | – | 1216 | – | – | 0.48 | – | –
x1 = 0.9502 | – | 742.52 | 737.48 | – | 1195 | 1170 | – | 0.432 | 0.409
x1 = 0.9551 | 746.78 | – | – | 1220 | – | – | 0.456 | – | –
x1 = 1 | 744.52 | 739.55 | 734.54 | 1232 | 1206 | 1180 | 0.439 | 0.416 | 0.394
